Publication PMC5065625, “Structure-mechanism-based engineering of chemical regulators targeting distinct pathological factors in Alzheimer's disease” (Nature Communications, 2016)
Where a name gives a salt, the structure may show the parent alone.

What was measured:
metal-free Aβ40/Aβ42 = metal-free Aβ40/Aβ42 (Homo sapiens, UniProt P05067); design: method as in PMID 26575890; settings: cited from earlier work
Solubility = format: physicochemical; settings: water; HCl salt

Sequence of metal-free Aβ40/Aβ42 (P05067 672-711 limits assumed): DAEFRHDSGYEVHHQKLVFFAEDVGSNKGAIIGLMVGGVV

Row | SMILES | Interaction with Aβ and redirection of self-assembly (metal-free Aβ40/Aβ42) | solubility (Solubility) [mg/mL]
1 | CN(C)c1ccc(N)cc1 [DMPD, N,N-dimethyl-p-phenylenediamine] | interact with both metal-free Aβ and metal–Aβ and redirect their self-assembly routes to form off-pathway aggregates | –
2 | Nc1ccc(NCc2ccccn2)cc1 [HCl salt of 1, N^1-(pyridin-2-ylmethyl)benzene-1,4-diamine] | – | ~800
